Source: patent US20050112573A1, “Method of detecting toxic substance” (priority 2001, published 2005)

Test system: yeast genes (level of expressed mRNA)
Test: DNA chip analysis of expressed mRNA of yeast genes after 2 h culture with a toxic chemical substance
Format: cell-based, Saccharomyces cerevisiae S288C
Details: for The level of expressed mRNA in the presence of chemical substance/ (ratio to absence of chemical substance): stress protein genes, DNA chip
Method: Yeast (Saccharomyces cerevtisiae S288C (α SUC2mal mel gap2 CUP1)) were cultured at 25° C. on YPD medium (yeast extract 1%, polypepton 2%, glucose 2%). One of toxic chemical substances was added to the cell at logarithmic growth phase, and the cell was further cultured for two hours. Cell was cultured without any chemical substance in the same condition, and was used as control. Concentrations of the chemical substances were defined to inhibit the growth of the yeast but not lead to death.
After the completion of cultivation, the culture was centrifuged to collect the cells. To the cells, sodium acetate buffer (50 mM sodium acetate, 10 mM EDTA, 1% SDS) was added, and the mixture was shaken at 65° C. for five minutes, followed by returning to room temperature, and obtaining the supernatant, which procedure was repeated two times. To the supernatant, ½ amount of a solution of phenol/chloroform was added, and the mixture was centrifuged to give a supernatant, which was added with an equal amount of chloroform, and the mixture was centrifuged to give a supernatant. To the supernatant, an equal amount of isopropanol containing 0.3 M sodium acetate was added, and the mixture was allowed to stand at room temperature for 30 minutes, after which the mixture was centrifuged to give a sediment of the whole RNAs. Seventy % ethanol was added to the sediment, and the mixture was again centrifuged to give a sediment, which was then dried and dissolved in water. mRNA was isolated from the whole RNAs as followings. In view of the fact that a poly A chain is attached to the 3′ terminus of mRNA, a polynucleotide having a poly T structure which was immobilized on the surface of latex beads was used to trap the mRNA, and then the mRNA was washed and eluted with spine column (Oligotex-dT30<Super>mRNA Purification Kit, Takara). Reverse transcription of the mRNA was conducted with a reverse transcriptase (Super Script II Reverse Transcriptase; catalogue No. 18064-014, GibcoBRL) using fluorescence-labeled nucleotides to give cDNAs that were introduced with Cy3-dUTP or Cy5-dUTP during the reverse transcription.
The labeled cDNAs were dissolved in TE buffer (10 mM Tris-HCl/1 mM EDTA, pH8.0), and the solution was dropped on the DNA chip containing the whole genes of yeast (DNA Chip Research Inc. Japan) so that the cDNAs were hybridized on the DNA chip at 65° C. for over 12 hours. The fluoresces intensity of the DNA chip was read with a scanner, and the ratio relative to the fluorescence intensity resulting from the absence of chemical substance was estimated as the following, which is shown in Tables 1 to 9: [formula]
In the Tables, “Intensity” indicated in the rightmost column is a value of the level of expressed mRNA of each gene in control cells as divided by the average level of the expressions of the whole genes.

C=CC=O [(14), acrolein]
The level of expressed mRNA in the presence of chemical substance/ in its absence, gene YDL078C (yeast gene YDL078C, ratio of DNA chip fluorescence intensity to that without chemical substance): 0.8
The level of expressed mRNA in the presence of chemical substance/ (in its absence), gene YDL215C (yeast gene YDL215C, ratio of DNA chip fluorescence intensity to that without chemical substance): 1.0
The level of expressed mRNA in the presence of chemical substance/The level of expressed mRNA in the absence of chemical substance (yeast gene YDL238C): 1.2
The level of expressed mRNA in the presence of chemical substance/The level of expressed mRNA in the absence of chemical substance (yeast gene YDR055W): 0.9
The level of expressed mRNA in the presence of chemical substance/ (in its absence), gene YDR073W (yeast gene YDR073W, ratio of DNA chip fluorescence intensity to that without chemical substance): 1.2
The level of expressed mRNA in the presence of chemical substance/ in its absence, gene YDR079W (yeast gene YDR079W, energy system protein genes, 2 h culture with the chemical, ratio to control without chemical): 1.5
The level of expressed mRNA in the presence of chemical substance/ (ratio to absence), gene YDR079W (yeast gene YDR079W, mitochondria-located protein genes, 2 h culture with chemical): 1.5
The level of expressed mRNA in the presence of chemical substance/The level of expressed mRNA in the absence of chemical substance (yeast gene YDR084C): 1.0
The level of expressed mRNA in the presence of chemical substance/The level of expressed mRNA in the absence of chemical substance (yeast gene YDR085C): 1.6
The level of expressed mRNA in the presence of chemical substance/The level of expressed mRNA in the absence of chemical substance (yeast gene YDR104C): 1.4
The level of expressed mRNA in the presence of chemical substance/The level of expressed mRNA in the absence of chemical substance (yeast gene YDR115W): 1.5
The level of expressed mRNA in the presence of chemical substance/The level of expressed mRNA in the absence of chemical substance (yeast gene YDR259C): 1.5
The level of expressed mRNA in the presence of chemical substance/ (in its absence), gene YDR297W (yeast gene YDR297W, ratio of DNA chip fluorescence intensity to that without chemical substance): 0.9
The level of expressed mRNA in the presence of chemical substance/The level of expressed mRNA in the absence of chemical substance (yeast gene YDR315C): 1.4
The level of expressed mRNA in the presence of chemical substance/The level of expressed mRNA in the absence of chemical substance (yeast gene YDR358W): 1.2
The level of expressed mRNA in the presence of chemical substance/ (ratio to absence), gene YDR377W (yeast gene YDR377W, mitochondria-located protein genes, 2 h culture with chemical): 1.4
The level of expressed mRNA in the presence of chemical substance/ (in its absence), gene YDR387C (yeast gene YDR387C, ratio of DNA chip fluorescence intensity to that without chemical substance): 0.9
The level of expressed mRNA in the presence of chemical substance/The level of expressed mRNA in the absence of chemical substance (yeast gene YDR388W): 0.6
The level of expressed mRNA in the presence of chemical substance/The level of expressed mRNA in the absence of chemical substance (yeast gene YDR432W): 0.5
The level of expressed mRNA in the presence of chemical substance/The level of expressed mRNA in the absence of chemical substance (yeast gene YDR481C): 0.9
The level of expressed mRNA in the presence of chemical substance/The level of expressed mRNA in the absence of chemical substance (yeast gene YDR510W): 1.9
The level of expressed mRNA in the presence of chemical substance/ (ratio to absence of chemical substance) (yeast gene YEL039C): 1.4
The level of expressed mRNA in the presence of chemical substance/The level of expressed mRNA in the absence of chemical substance (yeast gene YEL042W): 0.6
The level of expressed mRNA in the presence of chemical substance/The level of expressed mRNA in the absence of chemical substance (yeast gene YEL066W): 1.9
The level of expressed mRNA in the presence of chemical substance/ (in its absence), gene YER015W (yeast gene YER015W, ratio of DNA chip fluorescence intensity to that without chemical substance): 1.1
The level of expressed mRNA in the presence of chemical substance/The level of expressed mRNA in the absence of chemical substance (yeast gene YER039C): 1.2
The level of expressed mRNA in the presence of chemical substance/ (ratio to absence of chemical substance) (yeast gene YER057C): 1.4
The level of expressed mRNA in the presence of chemical substance/The level of expressed mRNA in the absence of chemical substance (yeast gene YER107C): 1.1
The level of expressed mRNA in the presence of chemical substance/The level of expressed mRNA in the absence of chemical substance (yeast gene YER130C): 0.8
The level of expressed mRNA in the presence of chemical substance/The level of expressed mRNA in the absence of chemical substance (yeast gene YFL028C): 1.6
The level of expressed mRNA in the presence of chemical substance/The level of expressed mRNA in the absence of chemical substance (yeast gene YFL043C): 1.5
The level of expressed mRNA in the presence of chemical substance/ (in its absence), gene YGL035C (yeast gene YGL035C, ratio of DNA chip fluorescence intensity to that without chemical substance): 1.1
The level of expressed mRNA in the presence of chemical substance/ (in its absence), gene YGL115W (yeast gene YGL115W, ratio of DNA chip fluorescence intensity to that without chemical substance): 1.2
The level of expressed mRNA in the presence of chemical substance/ (ratio to absence of chemical substance) (yeast gene YGL115W): 1.2
The level of expressed mRNA in the presence of chemical substance/The level of expressed mRNA in the absence of chemical substance (yeast gene YGL158W): 2.3
The level of expressed mRNA in the presence of chemical substance/ (ratio to absence), gene YGL187C (yeast gene YGL187C, mitochondria-located protein genes, 2 h culture with chemical): 0.9
The level of expressed mRNA in the presence of chemical substance/ (in its absence), gene YGL205W (yeast gene YGL205W, ratio of DNA chip fluorescence intensity to that without chemical substance): 1.0
The level of expressed mRNA in the presence of chemical substance/The level of expressed mRNA in the absence of chemical substance (yeast gene YGL229C): 1.0
The level of expressed mRNA in the presence of chemical substance/ in its absence, gene YGR062C (yeast gene YGR062C, energy system protein genes, 2 h culture with the chemical, ratio to control without chemical): 1.2
The level of expressed mRNA in the presence of chemical substance/ (ratio to absence), gene YGR062C (yeast gene YGR062C, mitochondria-located protein genes, 2 h culture with chemical): 1.2
The level of expressed mRNA in the presence of chemical substance/ (in its absence), gene YGR096W (yeast gene YGR096W, ratio of DNA chip fluorescence intensity to that without chemical substance): 1.2
The level of expressed mRNA in the presence of chemical substance/The level of expressed mRNA in the absence of chemical substance (yeast gene YGR136W): 1.1
The level of expressed mRNA in the presence of chemical substance/The level of expressed mRNA in the absence of chemical substance (yeast gene YGR189C): 0.9
The level of expressed mRNA in the presence of chemical substance/The level of expressed mRNA in the absence of chemical substance (yeast gene YGR213C): 1.0
The level of expressed mRNA in the presence of chemical substance/The level of expressed mRNA in the absence of chemical substance (yeast gene YGR257C): 0.9
The level of expressed mRNA in the presence of chemical substance/ (in its absence), gene YGR287C (yeast gene YGR287C, ratio of DNA chip fluorescence intensity to that without chemical substance): 1.1
The level of expressed mRNA in the presence of chemical substance/ (in its absence), gene YGR288W (yeast gene YGR288W, ratio of DNA chip fluorescence intensity to that without chemical substance): 1.1
The level of expressed mRNA in the presence of chemical substance/ (ratio to absence of chemical substance) (yeast gene YHL028W): 1.3
The level of expressed mRNA in the presence of chemical substance/ (ratio to absence of chemical substance) (yeast gene YHL046C): 1.4
The level of expressed mRNA in the presence of chemical substance/The level of expressed mRNA in the absence of chemical substance (yeast gene YHR004C): 0.8
The level of expressed mRNA in the presence of chemical substance/The level of expressed mRNA in the absence of chemical substance (yeast gene YHR071W): 1.6
The level of expressed mRNA in the presence of chemical substance/The level of expressed mRNA in the absence of chemical substance (yeast gene YHR139C): 2.5
The level of expressed mRNA in the presence of chemical substance/The level of expressed mRNA in the absence of chemical substance (yeast gene YHR142W): 1.2
The level of expressed mRNA in the presence of chemical substance/ (in its absence), gene YHR210C (yeast gene YHR210C, ratio of DNA chip fluorescence intensity to that without chemical substance): 1.0
The level of expressed mRNA in the presence of chemical substance/ (in its absence), gene YIL006W (yeast gene YIL006W, ratio of DNA chip fluorescence intensity to that without chemical substance): 1.0
The level of expressed mRNA in the presence of chemical substance/ (ratio to absence of chemical substance) (yeast gene YIL011W): 0.5
The level of expressed mRNA in the presence of chemical substance/The level of expressed mRNA in the absence of chemical substance (yeast gene YIL123W): 0.3
